Patent US11584712B2, “Alkylamine-substituted perthiocarbamates as dual precursors to hydropersulfide and carbonyl sulfide” (The Johns Hopkins University, priority 2020, dated 2023)
Entries after “also recorded” stand apart in the source; their conditions may differ.

Tests used:
[1] = test system: H9c2 cells; experiment: H9c2 cell protection from H2O2-mediated oxidative stress, SYTOX Green nucleic acid stain; assay type: cell-based, rat; details: 2 h pretreatment (150 μM for 8), then H2O2 200 μM
Procedure: Cells were seeded at a density of 1×10^4 cells/well. After 24 h, precursor 7b or byproduct 2b is added in 20 μL volumes using DMSO: H2O (<0.01% DMSO). Cells were incubated for 2 h before media was removed and the cells gently washed with PBS (pH 7.4). Then, 180 μL of fresh media and 20 μL H2O2 diluted in H2O were added before cells were incubated for an additional 1 h. After removing this media, 100 μL of media containing 3 μM SYTOX™ Green nucleic acid stain was added, and the cells incubated for 2 h before fluorescence readings were obtained at 485Ex/538Em (Step 1). Finally, an additional 100 μL of media containing 3 μM SYTOX™ and 0.2% Triton X-100 was added in order to permeabilize all cells and incubated for 1 h before fluorescence values measured (Step 2). The relative % cells surviving was calculated as a 100% minus the ratio of the fluorescence value of Step 1 over Step 2 (% cells surviving=100%−(FL538 (Step 1)/FL538 (Step 2)). Fluorescence values for vehicle-treated, non-H2O2-exposed wells were treated as background cell death and this value is added to the % cell survival for each subsequent group.
See Hofgaard et al., 2006, for general procedures. […] After removing this media, 100 μL of media containing 3 μM SYTOX® Green nucleic acid stain was added, and the cells incubated for 2 h before fluorescence readings were obtained at 485Ex/538Em (Step 1). […]

[2] = test system: H9c2 cells; experiment: Cytotoxicity study with SYTOX Green nucleic acid stain; assay type: cell-based, rat; details: 24 h exposure, 0-150 μM
Procedure: H9c2(2-1) embryonic rat heart myoblasts were obtained from the American Type Culture Collection. Cells were grown in Dulbecco's […] (DMEM), supplemented with fetal bovine serum (FBS) 10%, penicillin 100 U/mL and streptomycin 100 μg/mL. They were propagated in T75-flasks, split before reaching 70-80% confluence (usually every day or every second day), and used within 11 passages. Cells were passaged to tissue culture treated 96-well microtiter plates at the specified density in 180 μL volumes and incubated for 24 h.
Cells were seeded at a density of 1×10^4 cells/well. […] Then, 100 μL of media containing 3 μM SYTOX™ Green nucleic acid stain (Invitrogen) was added and the cells were incubated for 2 h before fluorescence readings were obtained at 485Ex/538Em (Step 1). Finally, an additional 100 μL of media containing 3 μM SYTOX™ and 0.2% Triton X-100 was added in order to permeabilize all cells and incubated for 1 h before fluorescence values measured (Step 2). The relative % cells surviving was calculated as a 100% minus the ratio of the fluorescence value of Step 1 over Step 2 (% cells surviving=100%−(FL538 (Step 1)/FL538(Step 2)).
Cells were seeded at a density of 1×10^4 cells/well. […] The relative % cells surviving was calculated as a 100% minus the ratio of the fluorescence value of Step 1 over Step 2 (% cells surviving=100%−(FL538 (Step 1)/FL538(Step 2)).

With `COC(=O)C(NC(C)=O)C(C)(C)SSC(=O)N(C)CCN` (centres unmarked) [Precursor 7b, 2-(((3-acetamido-4-methoxy-2-methyl-4-oxobutan-2-yl)disulfannecarbonyl)(methyl)amino)ethan-1-aminium] the “protection against H2O2-mediated toxicity (SYTOX)” value [1] was “protective effects” and the “cytotoxicity toward H9c2 cells” value [2] was “no toxicity; also recorded: not cytotoxic”.
